Test system: off-target adenosine receptors
Assay: Cross-sensitivity test: stimulation of off-target receptors in HEK293 cells on the biomolecular detection device
Format: cell-based
Conditions: 5 μM NECA, FIG. 6a
Experimental: SNAP-β2AR cells were grown to 60-80% confluency in T25 culture flasks, washed twice with warm phosphate-buffered saline (PBS), incubated with 1× Versene for 5 min and resuspended in cell culture medium. In order to decrease baseline signal contributions from non-functional cellular debris, the cells were centrifuged at 50 rpm for 1 min and resuspended in culture media two times sequentially. The cells were seeded to reach confluency on the waveguide in an incubation chamber containing 500 μl cell culture media. Cells were only seeded when viability exceeded 90%, as determined by a Countess automated cell counter (Invitrogen). Except for the real-time establishment of the transmembrane nanopattern, seeded cells were kept in a CO2 incubator at 37° C. for 2 h to allow cells adherence to the sensor chip (and covalent interaction of the SNAP-tag on the β2AR with the SNAP-tag substrate on the chip). The incubation chamber containing the cells was then washed twice with warm HBSS buffer (supplemented with 20 mM HEPES, pH 7.4) adjusted for DMSO and transferred to a modified F3000 ZeptoReader (Zeptosens) which was kept at 35° C. […] For all assays, the signal was monitored for 7 min (baseline measurement) before careful substitution of the buffer with buffer containing the β2AR ligand and monitored for another 21 min thereafter. […]

In the case of `CCNC(=O)[C@H]1O[C@@H](n2cnc3c(N)ncnc32)[C@H](O)[C@@H]1O` [NECA], the “signal (mass increase at the receptor relative to the initial mass) upon off-target stimulation” value is reported as “no significant signal change”.

Source: patent publication US20220397573A1, “Biomolecular Detection Device” (Hoffmann-La Roche Inc., priority 2019, published 2022)
